Data as given in patent US20080249186A1, “Fungicidal Composition” (GIVAUDAN SA, priority 2005, published 2008).

Tests used:
[1] = tested on: Rhizoctonia solani; test: Checkerboard titration / MIC determination in microtiter plates (turbidity, fungal growth); assay type: cell-based; details: agent alone; percent by weight
Method: (§1) A test system was set up with two of most common soil inhabitating plant pathogenic fungi causing high losses in green houses: Fusarium oxysporum, and Rhizoctonia solani. Garlic oil was used as the source of allyl sulphides.
(§2) The synergistic action between this oil and eugenol or thymol was tested in Checkerboard titration experiments. The ‘checkerboard’ is the inhibitory pattern found for multiple combinations of two antimicrobial agents in concentrations equal to, above, and below their minimal inhibitory concentration for the organism being tested. These multiple combinations of antimicrobial agents are prepared in microtiter plates. The checkerboard consists then of columns which contain the same amount of one antimicrobial which is diluted along the x-axis and rows which each contain the same amount of the other antimicrobial (diluted along the y-axis). Thus, each well of the microtiter plate is a unique combination of the two agents.
(§3) A method of quantitating synergy is the ‘fractional inhibitory concentration’ (FIC) index. For each row, the FIC index is calculated from the lowest concentration of agents necessary to inhibit growth. The FIC of each agent is derived by dividing the concentration of the agent present in that well of the microtiter plate by the minimal inhibitory concentration (MIC) needed of that agent alone to inhibit the organism. The FIC index is then the sum of these values for both antibacterial agents in that well of the microtiter plate. Fractional inhibitory concentration indices are then used as measure of synergy. The FIC index is calculated for each row as follows:
(§4) where MICa, MICb are the minimal inhibitory concentration (MIC) of compound A and B in the mixture, and MICA, MICB are the MIC of A and B when used alone. When the lowest FIC index obtained in a microtiter plate in this way is less than 1, the combination is synergistic. When the FIC index is 1, the combination is additive.
(§5) All examples were made using routine techniques for MIC determination. The dilutions of the active agents were prepared in dimethylsulfoxide, and 2 μl aliquots of the different stock solutions of each of the two agents were then added to individual wells of the microtiter plates to obtain the desired checkerboard as described above. Fungi were swabbed from agar plates and suspended in 10 ml of Sabouraud liquid medium. The fungal suspensions was diluted 20 fold in the same growth medium. To each well of the microtiter plates 100 μl of such a diluted suspension of the test organism was distributed. The plates were covered with plastic films and incubated for 48 h at 30° C. with shaking at 250 rpm. The turbidity was then measured with a microplate reader to determine fungal growth. […]

[2] = tested on: Fusarium oxysporum; test: as above; assay type: cell-based; details: agent alone; percent by weight
Method: as §1, §2, §3, §4, §5

Row | MIC of pure compounds, R. solani [1] | MIC of pure compounds, F. oxysporum [2] | SMILES
1 | 0.025% | 0.05% | C=CCc1ccc(O)c(OC)c1 [eugenol, 4-hydroxy-3-methoxy-1-allylbenzene]
2 | 0.0125% | 0.05% | Cc1ccc(C(C)C)c(O)c1 [thymol, 1-methyl-3-hydroxy-4-iso-propylbenzene]
